# Laboratory results taken from patent US8293682B2, “Growth regulators for gramineous weeds” (Rikengreen Co., Ltd., priority 2008, dated 2012).
# Columns and labels:
# [1] = test system: southern crabgrasses (Digitaria ciliaris Koel.); experiment: Test Example 5: field test in Manilagrass turf, inhibitory effect for ear emergence; format: in vivo
# Method: In a Manilagrass (Zoysia matrella) turf where southern crabgrasses (Digitaria ciliaris Koel.) were grown, a test zone of 1 m×1 m was provided. Benzyladenine (Beanine for painting; made by Rikengreen; containing 1% benzyladenine) and ethephon (Ethrel 10 soluble concentrate; Nissan Chemical Industries; containing 10% ethephon) were diluted in a predetermined amount of water. The respectively diluted solutions were applied to each test zone at the first application (Day 0) at a dose as indicated in Table, and after a lapse of 17 days the second application was carried out. The first application was conducted before the ear emergence of southern crabgrasses (Digitaria ciliaris Koel.). The amount of solution scattered was 150 mL/m^2 both in the first and second applications. The inhibitory effect for the ear emergence of southern crabgrasses (Digitaria ciliaris Koel.) within the area of 1 m×1 m was evaluated according to the standard as described in Table 7. […] The symbol “●” in Table 8 indicates the treatment with each agent, and “−” means untreated. Dose means the amount at a single application.
# [2] = test system: annual bluegrass (Poa annua L.); conditions: cited from earlier work
smiles,measurement,setting,value
"c1ccc(CNc2ncnc3nc[nH]c23)cc1 [Benzyladenine, 6-benzylaminopurine]",Evaluation: index of inhibitory effect for ear emergence,"[1]; Day 18, Benzyladenine 2.5 mg a.i./m^2, applied Day 0",0 (0% or more-less than 10%)
same,Evaluation: index of inhibitory effect for ear emergence,"[1]; Day 18, Benzyladenine 5 mg a.i./m^2, applied Day 0",0 (0% or more-less than 10%)
same,Evaluation: index of inhibitory effect for ear emergence,"[1]; Day 18, Benzyladenine 10 mg a.i./m^2, applied Day 0",2 (20% or more-less than 30%)
same,Evaluation: index of inhibitory effect for ear emergence,"[1]; Day 18, Benzyladenine 15 mg a.i./m^2, applied Day 0",10 (100%)
same,Evaluation: index of inhibitory effect for ear emergence,"[1]; Day 26, Benzyladenine 2.5 mg a.i./m^2, applied Day 0",0 (0% or more-less than 10%)
same,Evaluation: index of inhibitory effect for ear emergence,"[1]; Day 26, Benzyladenine 2.5 mg a.i./m^2, applied Day 0 and Day 17",1 (10% or more-less than 20%)
same,Evaluation: index of inhibitory effect for ear emergence,"[1]; Day 26, Benzyladenine 5 mg a.i./m^2, applied Day 0",0 (0% or more-less than 10%)
same,Evaluation: index of inhibitory effect for ear emergence,"[1]; Day 26, Benzyladenine 5 mg a.i./m^2, applied Day 0 and Day 17",2 (20% or more-less than 30%)
same,Evaluation: index of inhibitory effect for ear emergence,"[1]; Day 26, Benzyladenine 10 mg a.i./m^2, applied Day 0",2 (20% or more-less than 30%)
same,Evaluation: index of inhibitory effect for ear emergence,"[1]; Day 26, Benzyladenine 10 mg a.i./m^2, applied Day 0 and Day 17",6 (60% or more-less than 70%)
same,Evaluation: index of inhibitory effect for ear emergence,"[1]; Day 26, Benzyladenine 15 mg a.i./m^2, applied Day 0",9 (90% or more-less than 100%)
same,Evaluation: index of inhibitory effect for ear emergence,"[1]; Day 26, Benzyladenine 15 mg a.i./m^2, applied Day 0 and Day 17",10 (100%)
same,Evaluation: index of inhibitory effect for ear emergence,"[1]; Day 33, Benzyladenine 2.5 mg a.i./m^2, applied Day 0",0 (0% or more-less than 10%)
same,Evaluation: index of inhibitory effect for ear emergence,"[1]; Day 33, Benzyladenine 2.5 mg a.i./m^2, applied Day 0 and Day 17",3 (30% or more-less than 40%)
same,Evaluation: index of inhibitory effect for ear emergence,"[1]; Day 33, Benzyladenine 5 mg a.i./m^2, applied Day 0",1 (10% or more-less than 20%)
same,Evaluation: index of inhibitory effect for ear emergence,"[1]; Day 33, Benzyladenine 5 mg a.i./m^2, applied Day 0 and Day 17",3 (30% or more-less than 40%)
same,Evaluation: index of inhibitory effect for ear emergence,"[1]; Day 33, Benzyladenine 10 mg a.i./m^2, applied Day 0",5 (50% or more-less than 60%)
same,Evaluation: index of inhibitory effect for ear emergence,"[1]; Day 33, Benzyladenine 10 mg a.i./m^2, applied Day 0 and Day 17",7 (70% or more-less than 80%)
same,Evaluation: index of inhibitory effect for ear emergence,"[1]; Day 33, Benzyladenine 15 mg a.i./m^2, applied Day 0",7 (70% or more-less than 80%)
same,Evaluation: index of inhibitory effect for ear emergence,"[1]; Day 33, Benzyladenine 15 mg a.i./m^2, applied Day 0 and Day 17",8 (80% or more-less than 90%)
same,Evaluation: index of inhibitory effect for ear emergence,"[1]; Day 41, Benzyladenine 2.5 mg a.i./m^2, applied Day 0",0 (0% or more-less than 10%)
same,Evaluation: index of inhibitory effect for ear emergence,"[1]; Day 41, Benzyladenine 2.5 mg a.i./m^2, applied Day 0 and Day 17",1 (10% or more-less than 20%)
same,Evaluation: index of inhibitory effect for ear emergence,"[1]; Day 41, Benzyladenine 5 mg a.i./m^2, applied Day 0",2 (20% or more-less than 30%)
same,Evaluation: index of inhibitory effect for ear emergence,"[1]; Day 41, Benzyladenine 5 mg a.i./m^2, applied Day 0 and Day 17",5 (50% or more-less than 60%)
same,Evaluation: index of inhibitory effect for ear emergence,"[1]; Day 41, Benzyladenine 10 mg a.i./m^2, applied Day 0",2 (20% or more-less than 30%)
same,Evaluation: index of inhibitory effect for ear emergence,"[1]; Day 41, Benzyladenine 10 mg a.i./m^2, applied Day 0 and Day 17",6 (60% or more-less than 70%)
same,Evaluation: index of inhibitory effect for ear emergence,"[1]; Day 41, Benzyladenine 15 mg a.i./m^2, applied Day 0",4 (40% or more-less than 50%)
same,Evaluation: index of inhibitory effect for ear emergence,"[1]; Day 41, Benzyladenine 15 mg a.i./m^2, applied Day 0 and Day 17",8 (80% or more-less than 90%)
"O=P(O)(O)CCCl [Ethephon, 2-chloroethylphosphonic acid]",growth of annual bluegrass growing among Kentucky bluegrass,"[2]; Non-patent document 3, dose of 3.2 kg/hectare",slowed growth
same,ear emergence of annual bluegrass growing among bent grass,"[2]; Non-patent document 4, 3.8-7.6 kg/hectare",inhibits the ear emergence
same,Evaluation: index of inhibitory effect for ear emergence,"[1]; Day 18, Ethephon 50 mg a.i./m^2, applied Day 0",2 (20% or more-less than 30%)
same,Evaluation: index of inhibitory effect for ear emergence,"[1]; Day 26, Ethephon 50 mg a.i./m^2, applied Day 0",3 (30% or more-less than 40%)
same,Evaluation: index of inhibitory effect for ear emergence,"[1]; Day 26, Ethephon 50 mg a.i./m^2, applied Day 0 and Day 17",4 (40% or more-less than 50%)
same,Evaluation: index of inhibitory effect for ear emergence,"[1]; Day 33, Ethephon 50 mg a.i./m^2, applied Day 0",1 (10% or more-less than 20%)
same,Evaluation: index of inhibitory effect for ear emergence,"[1]; Day 33, Ethephon 50 mg a.i./m^2, applied Day 0 and Day 17",5 (50% or more-less than 60%)
same,Evaluation: index of inhibitory effect for ear emergence,"[1]; Day 41, Ethephon 50 mg a.i./m^2, applied Day 0",1 (10% or more-less than 20%)
same,Evaluation: index of inhibitory effect for ear emergence,"[1]; Day 41, Ethephon 50 mg a.i./m^2, applied Day 0 and Day 17",2 (20% or more-less than 30%)
